In publication PMC5286421, “Interactions of retinoids with the ABC transporters P-glycoprotein and Breast Cancer Resistance Protein” (Scientific Reports, 2017):
Read-outs that look alike come from different tables or passages of the source.

Key:
[1] = molecular target: T1, ABCG2 (Homo sapiens, UniProt Q9UNQ0); assay: Vanadate-sensitive ATPase activity of ABCG2 in Sf9 membrane preparations; format: biochemical; settings: for IC50 values, ABCG2 stimulated (quercetin-stimulated) ATPase activity / IC50 values, ABCG2 basal ATPase activity / IC50: cholesterol-loaded Sf9 membranes, mean ± SEM, n=3; for Change of apparent KM of quercetin-stimulated ABCG2 ATPase activity / Change of vmax of quercetin-stimulated ABCG2 ATPase activity: Figs 5 and 6; for Type of inhibition of the quercetin-stimulated ATPase activity of ABCG2: modified Michaelis-Menten fit at different quercetin concentrations
T1 sequence (Q9UNQ0 1-655): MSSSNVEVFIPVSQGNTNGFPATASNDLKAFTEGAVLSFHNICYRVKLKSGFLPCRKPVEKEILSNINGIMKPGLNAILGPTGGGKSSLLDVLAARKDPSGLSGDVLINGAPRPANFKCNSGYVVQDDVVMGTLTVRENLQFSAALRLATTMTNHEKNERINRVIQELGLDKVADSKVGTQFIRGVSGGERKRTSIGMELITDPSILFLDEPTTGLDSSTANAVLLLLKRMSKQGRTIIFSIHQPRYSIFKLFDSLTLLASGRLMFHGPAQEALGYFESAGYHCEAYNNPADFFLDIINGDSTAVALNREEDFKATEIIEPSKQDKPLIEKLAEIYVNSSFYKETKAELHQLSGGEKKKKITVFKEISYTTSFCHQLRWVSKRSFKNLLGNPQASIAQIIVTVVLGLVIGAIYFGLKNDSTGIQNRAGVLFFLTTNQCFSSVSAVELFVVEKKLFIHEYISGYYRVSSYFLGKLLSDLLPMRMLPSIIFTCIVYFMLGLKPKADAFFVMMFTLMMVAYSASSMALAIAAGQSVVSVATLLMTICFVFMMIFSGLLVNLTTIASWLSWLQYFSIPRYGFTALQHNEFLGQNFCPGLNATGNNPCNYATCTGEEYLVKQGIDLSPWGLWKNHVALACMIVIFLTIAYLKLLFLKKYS
Method: For ATPase activity measurements we used membrane samples derived from Sf9 (Spodoptera frugiperda) insect ovarian cells expressing human Pgp or ABCG2. cDNAs of the transporters were cloned into recombinant baculovirus transfer vectors, the Sf9 insect ovarian cells were cultured, and infected with the baculoviruses as described in ref. [52]. Sf9 cells overexpressing human Pgp and ABCG2 were harvested and cell membranes were isolated. The protein concentration of the membrane samples were determined by the Lowry method. The ABCG2 expressing Sf9 membrane samples were loaded with cholesterol by cholesterol-methyl-beta-cyclodextrine complex in order to obtain high specific ATPase activity of the transporter. Membrane samples were stored at −80 °C. The transporter expression of the membrane samples (5 μg membrane protein/slot) was routinely checked by immunoblot using the G-1 mAb (for Pgp) or BXP-21 mAb (for ABCG2) and a goat anti-mouse HRP-conjugated IgG secondary antibody. Both primary and secondary antibodies were from Santa Cruz Biotechnology Inc. (CA, USA) and applied at 1:5,000 dilution.
The vanadate-sensitive ATPase activity of Pgp and ABCG2 was determined by a colorimetric assay described in refs [32],[55]. Specific ATPase activity of the transporters was calculated from the amount of released inorganic phosphate. […]. The absorbance of the samples was measured at 700 nm using a BioTek Synergy HT plate reader (BioTek Instruments, Winooski, USA).
The half-inhibitory doses (IC50) of retinoids were determined by fitting the dose-response relationships with a four parameter sigmoidal curve, where Amax and Amin are the ATPase activities measured at zero and at infinitely high inhibitor concentrations, respectively, n is the Hill coefficient and x is the concentration of the inhibitor:
Upon studying the kinetics of inhibition of the substrate-stimulated ATPase activity by retinoids data points were fitted with a modified form of the Michaelis-Menten equation[56] which includes the Hill coefficient, n: […]
v0 is the basal ATPase activity measured in the absence of the stimulatory substrate, while vmax is the maximal extent of ATPase stimulation and KM is the Michaelis constant (i.e. the substrate concentration at which the reaction rate is half of vmax).

[2] = molecular target: T1, ABCG2; assay: Mitoxantrone accumulation test (ABCG2 transport activity) in MDCK ABCG2 cells; settings: 20 min pre-treatment 37 °C, 5 μM mitoxantrone 40 min
Method: (§1) Calcein-AM was applied to measure the transport activity of Pgp[51], while ABCG2 mediated transport was measured in mitoxantrone accumulation tests[18]. Cells were harvested and washed three times in PBS containing 7 mM glucose (gl-PBS). […] Dead cells were excluded from the analysis on the basis of propidium iodide (PI) staining.
(§2) Flow cytometric analysis was carried out on a Becton Dickinson FACSAria III Cell Sorter (Becton Dickinson, Mountain View, CA, USA). Calcein was excited by the 488 nm line of a solid state laser and the emitted light was detected using a 502 nm dichroic mirror and a 530/30 nm band-pass filter. […] AlexaFluor647 and mitoxantrone signals were detected with a 633 nm excitation laser and a 660/20 nm band-pass filter.

[3] = test system: NIH 3T3 / NIH 3T3 MDR1 and MDCK / MDCK ABCG2 cells; assay: DPH steady-state fluorescence anisotropy (membrane fluidity); settings: retinoids 100 μM; for Effect on DPH fluorescence anisotropy: cyclosporin 10 μM, Ko143 2 μM, 10 min 37 °C, all tested cell lines; for Effect on DPH anisotropy in transporter expressing compared to non-expressing cells: Pgp+ vs Pgp− NIH 3T3, ABCG2 expressing vs non-expressing MDCK
[4] = molecular target: T2, Pgp (Homo sapiens, UniProt P08183); settings: for IC50 values, Pgp stimulated (verapamil-stimulated) ATPase activity: 40 μM verapamil; for IC50 values, Pgp stimulated (verapamil-stimulated) ATPase activity / IC50 values, Pgp basal ATPase activity: Sf9 membranes, mean ± SEM, n=3; for IC50 values, Pgp basal ATPase activity: 10 min pre-incubation 37 °C, 3 mM ATP/Mg2+ 25 min; for Change of apparent KM of verapamil-stimulated Pgp ATPase activity / Change of vmax of verapamil-stimulated Pgp ATPase activity: Figs 5 and 6; for Type of inhibition of the verapamil-stimulated ATPase activity of Pgp: modified Michaelis-Menten fit at different verapamil concentrations
Method: (§3) For ATPase activity measurements we used membrane samples derived from Sf9 (Spodoptera frugiperda) insect ovarian cells expressing human Pgp or ABCG2. cDNAs of the transporters were cloned into recombinant baculovirus transfer vectors, the Sf9 insect ovarian cells were cultured, and infected with the baculoviruses as described in ref. [52]. Sf9 cells overexpressing human Pgp and ABCG2 were harvested and cell membranes were isolated. The protein concentration of the membrane samples were determined by the Lowry method[53]. The ABCG2 expressing Sf9 membrane samples were loaded with cholesterol by cholesterol-methyl-beta-cyclodextrine complex in order to obtain high specific ATPase activity of the transporter[54]. Membrane samples were stored at −80 °C. The transporter expression of the membrane samples (5 μg membrane protein/slot) was routinely checked by immunoblot using the G-1 mAb (for Pgp) or BXP-21 mAb (for ABCG2) and a goat anti-mouse HRP-conjugated IgG secondary antibody. Both primary and secondary antibodies were from Santa Cruz Biotechnology Inc. (CA, USA) and applied at 1:5,000 dilution.
(§4) The vanadate-sensitive ATPase activity of Pgp and ABCG2 was determined by a colorimetric assay described in refs [32],[55]. Specific ATPase activity of the transporters was calculated from the amount of released inorganic phosphate. […] The absorbance of the samples was measured at 700 nm using a BioTek Synergy HT plate reader (BioTek Instruments, Winooski, USA).

[5] = molecular target: T2, Pgp; assay: Calcein accumulation test (Pgp transport activity) in NIH 3T3 MDR1 cells; settings: 20 min pre-treatment 37 °C, 500 nM calcein-AM 20 min
Method: as §1, §2

[6] = cited from earlier work; for Plasma concentrations resulting from chemotherapy use: treatment of neuroblastoma or squamous cell carcinoma, ref [24][25][26]
[7] = test system: Pgp- and ABCG2-negative NIH 3T3 and MDCK cells; assay: Calcein and mitoxantrone accumulation in transporter negative cells; format: cell-based, mouse / canine; settings: NIH 3T3 (calcein) and MDCK (mitoxantrone), Supplementary Fig. S1, 50 µM
Method: Supplementary Fig. S1: Effect of retinoid derivatives on the calcein (a) and
mitoxantrone (c) accumulation and viability (b, d) of Pgp- and ABCG2-negative NIH
3T3 and MDCK cells. Cells were pre-treated with retinoids added at 50 µM concentration
Cell viability was determined on the basis of propidium iodide exclusion.
(1 picture or pasted object on this page, not shown here)

[8] = molecular target: T2, Pgp; assay: biochemical; settings: IC50 values, Sf9 membranes, mean ± SEM, n=3
Method: as §3, §4

[9] = cited from earlier work
[10] = test system: NIH 3T3 / NIH 3T3 MDR1 and MDCK / MDCK ABCG2 cells; assay: TMA-DPH steady-state fluorescence anisotropy (membrane fluidity); settings: 100 μM; NIH 3T3 and NIH 3T3 MDR1 cells
[11] = 10 μM quercetin, read-out: IC50 values, ABCG2 stimulated (quercetin-stimulated) ATPase activity
[12] = read-out: IC50 values, ABCG2 basal ATPase activity
[13] = Pgp basal ATPase activity, 10 min pre-incubation 37 °C, 3 mM ATP/Mg2+ 25 min
[14] = Pgp stimulated (verapamil-stimulated) ATPase activity, 40 μM verapamil

T2 sequence (P08183 whole entry): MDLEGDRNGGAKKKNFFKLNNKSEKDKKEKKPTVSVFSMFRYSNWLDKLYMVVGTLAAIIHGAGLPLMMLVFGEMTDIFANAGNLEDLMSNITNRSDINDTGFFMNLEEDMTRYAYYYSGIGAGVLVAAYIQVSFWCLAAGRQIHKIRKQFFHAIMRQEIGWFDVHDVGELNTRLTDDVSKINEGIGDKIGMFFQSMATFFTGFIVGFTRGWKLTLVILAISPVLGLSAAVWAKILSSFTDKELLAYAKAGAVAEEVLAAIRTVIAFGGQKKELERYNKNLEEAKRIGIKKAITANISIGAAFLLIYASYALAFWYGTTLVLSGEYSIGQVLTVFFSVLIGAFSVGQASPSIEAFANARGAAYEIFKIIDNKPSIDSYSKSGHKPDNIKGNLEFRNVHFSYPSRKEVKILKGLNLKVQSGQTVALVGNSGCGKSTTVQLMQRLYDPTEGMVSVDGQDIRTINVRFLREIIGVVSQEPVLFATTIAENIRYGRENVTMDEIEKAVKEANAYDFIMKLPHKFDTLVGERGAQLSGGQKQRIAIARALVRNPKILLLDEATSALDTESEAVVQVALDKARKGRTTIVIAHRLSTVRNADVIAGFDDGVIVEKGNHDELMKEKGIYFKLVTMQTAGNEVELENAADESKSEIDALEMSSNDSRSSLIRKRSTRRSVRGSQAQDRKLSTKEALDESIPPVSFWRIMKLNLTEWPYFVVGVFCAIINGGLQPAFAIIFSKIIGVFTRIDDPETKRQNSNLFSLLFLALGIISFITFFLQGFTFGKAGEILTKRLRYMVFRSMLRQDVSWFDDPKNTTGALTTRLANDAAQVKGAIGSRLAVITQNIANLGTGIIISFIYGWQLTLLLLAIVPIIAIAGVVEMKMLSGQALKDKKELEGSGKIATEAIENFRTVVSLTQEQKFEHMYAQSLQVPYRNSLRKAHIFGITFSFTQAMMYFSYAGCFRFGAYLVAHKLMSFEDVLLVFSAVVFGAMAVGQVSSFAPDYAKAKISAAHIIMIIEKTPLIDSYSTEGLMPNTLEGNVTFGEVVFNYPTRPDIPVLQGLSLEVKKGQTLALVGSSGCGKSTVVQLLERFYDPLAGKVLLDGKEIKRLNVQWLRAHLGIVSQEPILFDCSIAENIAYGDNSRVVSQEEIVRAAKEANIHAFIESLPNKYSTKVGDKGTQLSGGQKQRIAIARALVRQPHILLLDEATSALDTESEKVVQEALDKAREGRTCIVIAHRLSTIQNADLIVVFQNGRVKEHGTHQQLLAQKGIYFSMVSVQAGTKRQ

SMILES	IC50 values, ABCG2 stimulated (quercetin-stimulated) ATPase activity ([1]; 10 μM quercetin)	IC50 values, ABCG2 basal ATPase activity [1]	Effect on mitoxantrone accumulation of ABCG2 expressing cells (ABCG2 transport activity) [2]	Effect on DPH fluorescence anisotropy [3]	IC50 values, Pgp stimulated (verapamil-stimulated) ATPase activity [4]	IC50 values, Pgp basal ATPase activity [4]	Effect on calcein accumulation of Pgp expressing cells (Pgp transport activity) [5]	other results
CC1=C(/C=C/C(C)=C\C=C\C(C)=C\C(=O)O)C(C)(C)CCC1 [9-cis-retinoic acid]	No effect	No effect	none of them had any effect	did not have any effect	No effect	No effect	none of them had any effect	–
CCC(=O)OC/C=C(C)/C=C/C=C(C)/C=C/C1=C(C)CCCC1(C)C [Retinyl-propionate]	No effect	No effect	none of them had any effect	–	No effect	No effect	none of them had any effect	–
CC1=C(/C=C/C(C)=C/C=C/C(C)=C/C(=O)O)C(C)(C)CCC1=O [All-trans-4-oxo-retinoic acid, all-trans-4-oxo-retinoic acid]	No effect	No effect	–	–	Weak inhibition	No effect	–	–
CC1=C(/C=C/C(C)=C/C=C/C(C)=C/C(=O)O)C(C)(C)CCC1 [All-trans-retinoic-acid, all-trans retinoic acid]	No effect	No effect	none of them had any effect	did not have any effect	No effect	No effect	none of them had any effect	Plasma concentrations resulting from chemotherapy use [6]: 10 to 20 µM
CC1=C(/C=C/C(C)=C/C=C/C(C)=C\C(=O)O)C(C)(C)CCC1 [13-cis-retinoic acid]	–	–	increased the cellular accumulation of the fluorescent transporter substrates in a concentration dependent manner	increased the DPH fluorescence anisotropy values significantly	–	–	increased the cellular accumulation of the fluorescent transporter substrates in a concentration dependent manner	IC50 [1, 11]: 76.5 ± 2.3 µM; Change of apparent KM of quercetin-stimulated ABCG2 ATPase activity [1]: apparent increase of the KMvalues; Change of vmax of quercetin-stimulated ABCG2 ATPase activity [1]: decreased the vmax value; IC50 [1, 12]: 70.6 ± 9 µM; Type of inhibition of the quercetin-stimulated ATPase activity of ABCG2 [1]: mixed-type transporter inhibition; Plasma concentrations resulting from chemotherapy use [6]: 10 to 20 µM; Effect on substrate accumulation of transporter negative cells [7]: did not have any effect; Effect on DPH anisotropy in transporter expressing compared to non-expressing cells [3]: similarly; Change of apparent KM of verapamil-stimulated Pgp ATPase activity [4]: did not induce statistically significant KM increase; Change of vmax of verapamil-stimulated Pgp ATPase activity [4]: decreased the vmax; Type of inhibition of the verapamil-stimulated ATPase activity of Pgp [4]: inhibits Pgp only non-competitively; IC50 [8, 13]: 60.5 ± 11.4 µM; IC50 [8, 14]: 26.8 ± 2 µM
CC1=C(/C=C/C(C)=C/C=C/C(C)=C/CO)C(C)(C)CCC1 [Retinol]	–	–	increased the cellular accumulation of the fluorescent transporter substrates in a concentration dependent manner	increased the DPH fluorescence anisotropy values significantly	–	–	increased the cellular accumulation of the fluorescent transporter substrates in a concentration dependent manner	IC50 [1, 11]: 95.2 ± 10.6 µM; Change of apparent KM of quercetin-stimulated ABCG2 ATPase activity [1]: increased the KM; Change of vmax of quercetin-stimulated ABCG2 ATPase activity [1]: decreased the vmax; IC50 [1, 12]: 31.6 ± 4.2 µM; Type of inhibition of the quercetin-stimulated ATPase activity of ABCG2 [1]: mixed-type transporter inhibition; Concentration present in the plasma (physiological) ([6]; ref [20]): 1–2 micromolar; Effect on substrate accumulation of transporter negative cells [7]: did not have any effect; Effect on DPH anisotropy in transporter expressing compared to non-expressing cells [3]: similarly; LogP (octanol-water partition coefficient, LogPow) ([9]; ref PubChem Compound Database (CID)): 5.7; Change of apparent KM of verapamil-stimulated Pgp ATPase activity [4]: increased the KM; Change of vmax of verapamil-stimulated Pgp ATPase activity [4]: decreased the vmax; Type of inhibition of the verapamil-stimulated ATPase activity of Pgp [4]: mixed-type transporter inhibition; IC50 [8, 13]: 23.5 ± 4 µM; IC50 [8, 14]: 27.9 ± 0.7 µM
O=c1c(O)c(-c2ccc(O)c(O)c2)oc2cc(O)cc(O)c12 [quercetin]	–	–	–	–	–	–	–	Stimulated ATPase activity of ABCG2 ([1]; 10 μM quercetin): 60–70 nmol Pi/ mg protein/min; Stimulation of ABCG2 ATPase activity ([1]; 10 μM quercetin, maximum stimulation): ~2 fold; LogP (octanol-water partition coefficient, LogPow) ([9]; ref 2 (Rothwell et al., 2005)): 1.8
CCCCCCCCCCCCCCCC(=O)OC/C=C(C)/C=C/C=C(C)/C=C/C1=C(C)CCCC1(C)C [Retiny-palmitate, Retinyl-palmitate]	No effect	No effect	none of them had any effect	–	No effect	No effect	none of them had any effect	Effect on TMA-DPH fluorescence anisotropy, NIH 3T3 cell pair [10]: decreased the TMA-DPH anisotropies significantly
